# Patent US12239650B2, “Compounds for treating and preventing net associated complications” (The Australian National University, priority 2019, dated 2025)
# Columns and labels:
# [1] = system: histone-mediated cytotoxicity for HMEC-1; assay: Histone-mediated cytotoxicity assay (PI/Calcein-AM flow cytometry); type: cell-based
# Description: Histone-mediated cytotoxicity assays. To determine the cytotoxicity of calf thymus histones (Sigma-Aldrich), various concentrations of histones (100-800 μg ml^−1) were added to suspensions of HMEC-1 or HUVEC (1×10^6 ml^−1) in 96 well plates and incubated for 1 h at 37° C. Cells were then incubated for 5 min at 37° C. with propidium iodide (PI; 2.5 μg ml^−1) (ThermoFisher Scientific), to detect dead cells, and Calcein-AM (0.04 μM) (ThermoFisher Scientific), to detect viable cells, placed on ice and the percentage of dead and viable cells determined by flow cytometry using gating strategies. In inhibition assays, HMEC-1 were incubated with histones (400 μg ml^−1) for 1 h at 37° C. in the presence of different concentrations of compounds (12.5-400 μg ml^−1) prior to the addition of PI and Calcein-AM. HMEC-1 cytotoxicity at each compound concentration was then determined based on the formula:
# [formula] and the IC50 value for each polyanion then determined based on the line of best fit (nonlinear regression analysis) using Prism Software (Graphpad Software). In all assays MTS (IC50 30 μg ml^−1) was included as a standard to compensate for experimental variation, with data being adjusted in each assay to MTS having an IC50 of 30 μg ml^−1.
# histones = assay: Lipid bilayer assay (artificial lipid bilayers exposed to histones); conditions: for Average bilayer lifetime: histones alone 5.7±1.2, control 46±4; for Incidence of rapid bilayer rupture: within 0.3-0.5 min of histone addition, histones alone 28%
# Description: Lipid bilayer assays. Artificial lipid bilayers, prepared as previously described (Rebbeck, R. T. et al. The beta(1a) subunit of the skeletal DHPR binds to skeletal RyR1 and activates the channel via its 35-residue C-terminal tail. Biophys J 100, 922-930 (2011).), separated symmetrical 150 mM or 250 mM KCl (pH ˜5.5) solutions. Histones (1 μM, 15.2 μg ml^−1) were added to bilayers alone or after 0.5-3 h incubation with 10 μM CBS (3.5 μg ml^−1) or 10 μM MTS (5.1 μg ml^−1) at ˜20° C. Current was recorded continuously after histone addition until the bilayers broke or the experiment was terminated.
# [2] = Rat caecal ligation and puncture (CLP) assay for sepsis; type: in vivo; conditions: for Mortality in CLP model of sepsis: rats n=8/group, 50 mg kg^−1 i.p. 5 min pre-CLP and 5, 10, 15 h post-op, 20 h, FIG. 7a; for High ALT and creatinine levels (liver and kidney damage) in CLP rats: 50 mg kg^−1 i.p., versus untreated group, FIG. 7b
# Description: Rat caecal ligation and puncture (CLP) assay for sepsis. […] Test compounds (50 mg kg^−1) dissolved in saline or an equivalent volume of saline only (Control cohort) were administered i.p. 5 min pre-CLP and 5, 10 and 15 h post-op until cessation of the experiment at 20 h. Sham-CLP rats underwent the same procedure, however, the caecum was not ligated or punctured and these rats received saline at the same times as above. At the conclusion of the experimental time period (20 h) or when morbidity required ethical euthanasia, the rats were anaesthetized and blood was collected via cardiac puncture into EDTA for subsequent analysis of liver (ALT) and kidney (creatinine) function by the Department of Pathology, The Canberra Hospital.
# [3] = system: anti-proliferative effect of sepsis patients sera on HMEC-1; type: cell-based, human; conditions: HMEC-1, test compounds 200 μg ml^−1, FIG. 9d
# Description: Detection and analysis of cytotoxicity of septic patient sera for endothelial cells. To measure the cytotoxic activity of septic patients sera for endothelial cells in-vitro, HMEC-1 were seeded into 96-well plates at 2.5×10^4 well^−1 in medium and grown at 37° C. in 5% CO2 for 48 h prior to the addition of 50 μl of patient serum in the presence/absence of DNase I (10 μg ml^−1), anti-human histone 3 and histone 4 rabbit pAbs (200 μg ml^−1) (BioVision), or test compounds (200 μg ml^−1) and incubated for 3 h. ^3H-thymidine (0.5 μCi, MP Biomedical) was then added to each culture well in 20 μl of HMEC-1 medium and incubated for a further 24 h. At the conclusion of the incubation period plates were subjected to 3 freeze/thaw cycles (−70° C. for 30 min, then 37±0.5° C. for 30 min) prior to harvesting and measurement of ^3H-thymidine incorporation. […] Filters were dried at 80° C. and placed in Omnifilter plates (Perkin Elmer) then 20 μl of Microscint-O scintillation fluid (Perkin Elmer) was added to each well and the plate sealed with TopSeal-A adhesive film (Perkin Elmer). ^3H-thymidine incorporation was measured using a TopCount NXT™ Microplate Scintillation and Luminescence Counter (Packard Bioscience). Results expressed as a percentage of the proliferation of HMEC-1 not exposed to patient sera.
# [4] = histones 1 μM with 10 μM compound
Structure (SMILES),"Inhibition of histone-mediated cytotoxicity for HMEC-1 (endothelial cells) ([1]; compared with heparin, FIG. 2a)","IC50, inhibition of histone-mediated HMEC-1 cytotoxicity ([1]; histones 400 μg ml^−1, 1 h 37° C., MTS used as standard in all assays)",Bilayer lifetime compared with control lifetimes (histones; [4]),Average bilayer lifetime (histones; [4]),Incidence of rapid bilayer rupture (histones),Mortality in CLP model of sepsis [2],High ALT and creatinine levels (liver and kidney damage) in CLP rats [2],Effect on anti-proliferative activity of the 10 most inhibitory septic patient sera [3]
"O=S(=O)(O)OC[C@H]1O[C@H](O[C@H]2[C@H](OS(=O)(=O)O)[C@@H](OS(=O)(=O)O)C(OS(=O)(=O)O)O[C@@H]2COS(=O)(=O)O)[C@H](OS(=O)(=O)O)[C@@H](OS(=O)(=O)O)[C@@H]1O[C@H]1O[C@H](COS(=O)(=O)O)[C@@H](OS(=O)(=O)O)[C@H](OS(=O)(=O)O)[C@H]1OS(=O)(=O)O (stereo partly shown) [MTS, maltotriose per-O-sulfate]",as effective as heparin,30 µg/mL,not significantly different from the control lifetimes,36 ± 5 min,2.5%,only one death,only partially reduced,did not
"O=S(=O)(O)OC[C@H]1O[C@@H](O[C@H]2[C@H](OS(=O)(=O)O)[C@@H](OS(=O)(=O)O)C(OS(=O)(=O)O)O[C@@H]2COS(=O)(=O)O)[C@H](OS(=O)(=O)O)[C@@H](OS(=O)(=O)O)[C@@H]1OS(=O)(=O)O (stereo partly shown) [CBS, cellobiose per-O-sulfate]",–,–,–,18 ± 4 min,5.8%,no mortality,not seen,significantly overrode
